Test results: patent US20100184815A1 (priority 2008, published 2010)

Assays:
Assay type in all cases: cell-based
[1] = target: T1, Full Length hPPARα (Homo sapiens, UniProt Q07869); experiment: Full length hPPARα transfection assay; settings: full length receptor; read-out: Full Length hPPAR α EC50 (scaled number)
T1 construct: Full Length; expressed in transfected cells; host or cells: Cos cells
T1 sequence (Q07869 1-468): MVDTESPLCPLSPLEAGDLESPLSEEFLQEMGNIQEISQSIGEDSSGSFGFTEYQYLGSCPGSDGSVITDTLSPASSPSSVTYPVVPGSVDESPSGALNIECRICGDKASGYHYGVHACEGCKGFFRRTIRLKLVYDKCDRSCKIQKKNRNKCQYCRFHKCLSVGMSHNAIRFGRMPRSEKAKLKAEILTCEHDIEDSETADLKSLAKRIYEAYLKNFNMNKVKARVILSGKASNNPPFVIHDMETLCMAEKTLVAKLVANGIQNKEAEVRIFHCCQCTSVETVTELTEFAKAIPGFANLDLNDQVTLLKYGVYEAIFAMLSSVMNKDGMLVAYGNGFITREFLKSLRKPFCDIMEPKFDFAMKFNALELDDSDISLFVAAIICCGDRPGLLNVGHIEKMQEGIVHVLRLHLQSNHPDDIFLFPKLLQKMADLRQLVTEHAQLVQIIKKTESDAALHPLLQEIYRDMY
Procedure: (§1) Transient transfection assays. Cos cells were seeded in 60-mm dishes at a density of 5.5×10^5 cells/dish in Dulbecco's modified Eagle's medium (DMEM) supplemented with 10% fetal calf serum (FCS) and incubated at 37° C. for 24 hours before transfection. Cells were transfected in Opti-MEM (Gibco; Invitrogen, Carlsbad, Calif.) without FCS for 3 hours at 37° C., using polyethylenimine, with reporter and expression plasmids. The plasmid pBluescript (Stratagene, La Jolla, Calif.) was used as carrier DNA to set the final amount of DNA to 5.5 μg/dish. The pCMV-b-galactosidase expression plasmid was cotransfected as a control for transfection efficiency. Transfection was stopped by the addition of DMEM supplemented with 10% FCS, and cells were then incubated at 37° C. After 16 hours, cells were trypsinized and seeded in 96-well plates at the density of 2×10^4 cells/well and incubated for 6 hours in 10% FCS-containing DMEM. Cells were then incubated for 24 hours in DMEM containing 0.2% FCS and increasing concentrations of the compound tested or vehicle (DMSO). At the end of the experiment, cells were washed once with ice-cold PBS, lysed and the luciferase and b-galactosidase assays were performed in a luminometer and spectrophotomer. Transfection efficiencies were normalized with the b-galactosidase activity assay. Half-maximal effective concentration (EC50) was estimated using Prism software (GraphPad). All transfection experiments were performed at least three times.
(§2) In the following tables, proprietary compound EC50 values for hPPAR α, β, δ and γ are shown. The EC50 value is the concentration of a drug that induces a response halfway between the baseline and maximum, and is commonly used as a measure of drug potency. EC50 values are reported on a scale of 1 through 5, wherein the value scale is defined for each receptor as follows: […]

[2] = target: T2, Gal-4 hPPARα (Homo sapiens, UniProt Q07869); experiment: Gal4-hPPARα transient transfection reporter assay in Cos cells; settings: luciferase reporter, 24 hours with compound, scale 1-5, read-out: Gal-4 hPPAR α EC50 (scaled number)
T2 construct: Plasmids pGal4-hPPARα, pGal4-hPPARγ, pGal4-hPPARδ and pG5-TK-pGL3 were constructed as previously described by Staels, Bart, et al., Nature 1998 Jun; 25
T2 sequence (Q07869 200-468 limits assumed): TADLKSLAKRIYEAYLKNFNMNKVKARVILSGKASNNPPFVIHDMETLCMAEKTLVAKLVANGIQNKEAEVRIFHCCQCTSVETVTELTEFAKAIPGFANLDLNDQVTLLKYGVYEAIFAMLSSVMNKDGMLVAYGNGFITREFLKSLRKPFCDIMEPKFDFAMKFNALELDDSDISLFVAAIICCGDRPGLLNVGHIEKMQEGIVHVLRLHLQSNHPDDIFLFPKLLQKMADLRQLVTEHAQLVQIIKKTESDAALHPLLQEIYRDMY
In short: (§3)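 Cos cells transiently co-transfected with Gal4-hPPAR expression plasmid, pG5-TK-pGL3 luciferase reporter and β-galactosidase control, then treated 24 h with increasing compound concentrations in DMEM containing 0.2% FCS. Luciferase normalised to β-galactosidase; EC50 from curve fit, at least three experiments.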

[3] = target: T3, Gal-4 hPPARβ/δ (Homo sapiens, UniProt Q03181); experiment: Gal4-hPPARδ transient transfection reporter assay in Cos cells; settings: luciferase reporter, 24 hours with compound, scale 1-5, read-out: Gal-4 hPPAR β/δ EC50 (scaled number)
T3 construct: Plasmids pGal4-hPPARα, pGal4-hPPARγ, pGal4-hPPARδ and pG5-TK-pGL3 were constructed as previously described by Staels, Bart, et al., Nature 1998 Jun; 25
T3 sequence (Q03181 171-441 limits assumed): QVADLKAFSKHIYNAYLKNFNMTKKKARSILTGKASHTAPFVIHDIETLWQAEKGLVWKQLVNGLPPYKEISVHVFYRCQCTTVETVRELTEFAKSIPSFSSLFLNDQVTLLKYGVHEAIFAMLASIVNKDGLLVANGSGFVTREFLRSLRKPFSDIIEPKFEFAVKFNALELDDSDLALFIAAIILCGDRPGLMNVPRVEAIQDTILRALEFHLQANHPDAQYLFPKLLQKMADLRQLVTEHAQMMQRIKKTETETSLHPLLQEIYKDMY
In short: as §3

[4] = target: T4, Gal-4 hPPARγ (Homo sapiens, UniProt P37231); experiment: Gal4-hPPARγ transient transfection reporter assay in Cos cells; settings: luciferase reporter, 24 hours with compound, scale 1-5, read-out: Gal-4 hPPAR γ EC50 (scaled number)
T4 construct: Plasmids pGal4-hPPARα, pGal4-hPPARγ, pGal4-hPPARδ and pG5-TK-pGL3 were constructed as previously described by Staels, Bart, et al., Nature 1998 Jun; 25
T4 sequence (P37231 238-505 limits assumed): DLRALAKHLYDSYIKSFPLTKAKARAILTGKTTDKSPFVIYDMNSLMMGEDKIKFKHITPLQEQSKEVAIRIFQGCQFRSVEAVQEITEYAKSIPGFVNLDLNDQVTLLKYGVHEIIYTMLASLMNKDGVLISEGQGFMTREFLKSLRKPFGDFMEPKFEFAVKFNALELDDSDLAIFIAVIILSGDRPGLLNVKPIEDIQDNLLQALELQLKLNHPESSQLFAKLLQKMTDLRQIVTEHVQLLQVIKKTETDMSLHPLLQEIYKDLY
In short: as §3

[5] = target: T5, Full Length hPPARγ (Homo sapiens, UniProt P37231); experiment: Full length hPPARγ transfection assay; settings: full length receptor; scale 1-5; read-out: Full Length hPPAR γ EC50 (scaled number)
T5 construct: Full Length; expressed in transfected cells; host or cells: Cos cells
T5 sequence (P37231 1-505): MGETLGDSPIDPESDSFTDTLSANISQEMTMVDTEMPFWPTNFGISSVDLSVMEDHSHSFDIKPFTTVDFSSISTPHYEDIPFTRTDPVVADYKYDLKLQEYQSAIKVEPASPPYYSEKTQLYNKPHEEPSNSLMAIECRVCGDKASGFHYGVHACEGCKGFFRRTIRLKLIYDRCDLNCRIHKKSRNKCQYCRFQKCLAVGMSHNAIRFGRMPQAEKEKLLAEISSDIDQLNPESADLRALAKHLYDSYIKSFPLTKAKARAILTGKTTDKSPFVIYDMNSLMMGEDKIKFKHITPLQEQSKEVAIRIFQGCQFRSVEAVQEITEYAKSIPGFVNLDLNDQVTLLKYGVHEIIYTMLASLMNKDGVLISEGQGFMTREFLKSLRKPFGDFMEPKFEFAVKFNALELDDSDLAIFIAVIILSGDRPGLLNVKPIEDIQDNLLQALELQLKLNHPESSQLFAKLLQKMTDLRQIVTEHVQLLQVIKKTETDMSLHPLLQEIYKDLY
Procedure: as §1, §2

[6] = target: T6, Full Length hPPARβ/δ (Homo sapiens, UniProt Q03181); experiment: Full length hPPARβ/δ transfection assay; settings: full length receptor; scale 1-5; read-out: Full Length hPPAR β/δ EC50 (scaled number)
T6 construct: Full Length; expressed in transfected cells; host or cells: Cos cells
T6 sequence (Q03181 1-441): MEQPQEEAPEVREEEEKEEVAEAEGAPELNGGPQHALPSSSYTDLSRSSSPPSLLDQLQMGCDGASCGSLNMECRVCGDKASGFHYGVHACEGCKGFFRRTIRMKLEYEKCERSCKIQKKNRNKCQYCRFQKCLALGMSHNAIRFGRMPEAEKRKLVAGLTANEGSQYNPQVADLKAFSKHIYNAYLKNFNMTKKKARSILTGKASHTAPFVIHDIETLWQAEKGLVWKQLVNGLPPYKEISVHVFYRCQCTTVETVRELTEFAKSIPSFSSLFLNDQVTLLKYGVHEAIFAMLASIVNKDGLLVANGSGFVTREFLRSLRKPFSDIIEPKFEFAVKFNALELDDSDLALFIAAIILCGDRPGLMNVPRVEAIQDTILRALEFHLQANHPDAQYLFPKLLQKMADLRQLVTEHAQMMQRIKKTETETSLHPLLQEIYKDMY
Procedure: as §1, §2

Structure (SMILES)	EC50 [1] [nM]	EC50 [2] [nM]	EC50 [3] [nM]	EC50 [4] [nM]	EC50 [5] [nM]	EC50 [6] [nM]
Cc1ccc(Cn2nncc2COC(=O)c2ccc(SC(C)(C)C(=O)O)cc2)cc1 [Compound 62, 2-methyl-2-(4-(((1-(4-methylbenzyl)-1H-1,2,3-triazol-5-yl)methoxy)carbonyl)phenylthio)propanoic acid]	51 to 200	51 to 200	> 1000	> 1000		
CC(C)c1ccc(-n2cc(COC(=O)c3ccc(SC(C)(C)C(=O)O)cc3)nn2)cc1 [Compound 56, 2-(4-(((1-(4-isopropylphenyl)-1H-1,2,3-triazol-4-yl)methoxy)carbonyl)phenylthio)-2-methylpropanoic acid]	1 to 50	51 to 200	> 1000	> 1000	201 to 999	
CCCn1c(COC(=O)c2ccc(OC(C)(C)C(=O)O)cc2)nn(Cc2ccc(OC(F)(F)F)cc2)c1=O [Compound 168, 2-methyl-2-(4-(((5-oxo-4-propyl-1-(4-(trifluoromethoxy)benzyl)-4,5-dihydro-1H-1,2,4-triazol-3-yl)methoxy)carbonyl)phenoxy)propanoic acid]	51 to 200	201 to 999	> 1000	> 1000	> 1000	
COc1ccc(Cn2cc(COC(=O)c3ccc(SC(C)(C)C(=O)O)cc3)nn2)cc1 [Compound 68, 2-(4-(((1-(4-methoxybenzyl)-1H-1,2,3-triazol-4-yl)methoxy)carbonyl)phenylthio)-2-methylpropanoic acid]	51 to 200	51 to 200	> 1000	> 1000		
Cn1nc(-c2ccccc2)cc1COC(=O)c1ccc(OC(C)(C)C(=O)O)cc1 [Compound 2, 2-methyl-2-(4-(((1-methyl-3-phenyl-1H-pyrazol-5-yl)methoxy)carbonyl)phenoxy)propanoic acid]	1 to 50	201 to 999	> 1000	> 1000		
CC(C)(Sc1ccc(C(=O)OCCn2cc(-c3ccc(C(C)(C)C)cc3)nn2)cc1)C(=O)O [Compound 89, 2-(4-((2-(4-(4-tert-butylphenyl)-1H-1,2,3-triazol-1-yl)ethoxy)carbonyl)phenylthio)-2-methylpropanoic acid]	1 to 50	51 to 200	> 1000	> 1000		

Results, then the molecule that gave them:

EC50 [1] [nM]	EC50 [2] [nM]	EC50 [3] [nM]	EC50 [4] [nM]	EC50 [5] [nM]	EC50 [6] [nM]	Structure (SMILES)
< 1	< 1	> 1000	51 to 200	51 to 200		CCCCCCCn1c(COC(=O)c2ccc(OC(C)(C)C(=O)O)c(OC)c2)nn(Cc2ccc(C(C)(C)C)cc2)c1=O [Compound 212, 2-(4-(((1-(4-tert-butylbenzyl)-4-heptyl-5-oxo-4,5-dihydro-1H-1,2,4-triazol-3-yl)methoxy)carbonyl)-2-methoxyphenoxy)-2-methylpropanoic acid]
< 1	1 to 50	> 1000	> 1000			CCCCCCn1c(COC(=O)c2ccc(OC(C)(C)C(=O)O)c(OC)c2)nn(Cc2ccc(C(C)(C)C)cc2)c1=O [Compound 185, 2-(4-(((1-(4-tert-butylbenzyl)-4-hexyl-5-oxo-4,5-dihydro-1H-1,2,4-triazol-3-yl)methoxy)carbonyl)-2-methoxyphenoxy)-2-methylpropanoic acid]
< 1	1 to 50	> 1000	> 1000			Cc1ccc(Cn2cc(C(C)OC(=O)c3ccc(SC(C)(C)C(=O)O)cc3)nn2)cc1 (stereo not shown) [Compound 81, 2-methyl-2-(4-((1-(1-(4-methylbenzyl)-1H-1,2,3-triazol-4-yl)ethoxy)carbonyl)phenylthio)propanoic acid]
< 1	1 to 50	> 1000	> 1000	51 to 200	> 1000	Cn1nc(-c2ccccc2)cc1COC(=O)c1ccc(SC(C)(C)C(=O)O)cc1 [Compound 1, 2-methyl-2-(4-(((1-methyl-3-phenyl-1H-pyrazol-5-yl)methoxy)carbonyl)phenylthio)propanoic acid]
< 1	201 to 999	> 1000	> 1000			CCCn1c(COC(=O)c2ccc(OC(C)(C)C(=O)O)c(OC)c2)nn(Cc2ccc(C(C)(C)C)cc2)c1=O [Compound 180, 2-(4-(((1-(4-tert-butylbenzyl)-5-oxo-4-propyl-4,5-dihydro-1H-1,2,4-triazol-3-yl)methoxy)carbonyl)-2-methoxyphenoxy)-2-methylpropanoic acid]
